As usually defined, the EC50 is the concentration that produces a half-maximal response.

One assay concerns MM.1S cells. In words: CellTiter-Glo cell viability assay. Format: cell-based, human. The settings on record: for EC50: Homo sapiens, MM1.S, 72 h, n.e.: no effect (≤25 % effect up to 50 μM), read-out: EC50 MM.1S; for antiproliferative activity reduced compared to vorinostat by a factor: MM.1S cells. Here is the method: For this purpose, the dilution series were prepared in 200-fold concentration in DMSO and further diluted to 10-fold concentration in medium. The final DMSO concentration was 0.5%. The toxicity of compounds was determined after 72 h using the CellTiter-Glo 2.0 Cell Viability Assay (Promega, Madison, WI, USA, #G9242) according to the manufacturer´s protocol. Subsequently, the luminescence was measured using a Tecan Spark (Tecan Group AG, Maennedorf, Swiss) and the half maximal effective concentration (EC50) was determined by plotting dose response curves and nonlinear regression with GraphPad Prism (GraphPad Software, San Diego, CA, USA). […] Cellular HDAC Inhibition Assay […] with minor changes. […] The DMSO-stock solutions were used to perform a serial dilution in DMSO. […] 10 µL of the substrate solution was added and incubated for 3 h under cell culture conditions. […] S8
(In general: In ATP-based viability assays light output follows the ATP content of the culture.)

Another assay has as its system U-87MG cells. Description: MTT cell viability assay. It counts as cell-based. The following applies: Homo sapiens, 72 h, n.e.: no effect (≤25 % effect up to 50 μM). The method, then: GraphPad Prism (GraphPad Software).
2.8. MTT Cell Viability Assay
U-87MG cells (3 × 10^3 cells/well) or MDA-MB-231 cells (5 × 10^3 cells/well) were seeded in 96-well flat-bottomed plates. After 24 h the cells were incubated with the stock solutions of the respective compounds dissolved in DMSO (highest DMSO concentration, 0.5%) to reach the final concentrations as indicated. Controls received DPBS or DMSO. Following a 71 h incubation period 20 µl of a freshly prepared 5 mg/ml MTT (3-(4,5-dimethylthiazol-2-yl)-2,5-diphenyltetrazolium bromide, AppliChem GmbH, Darmstadt, Germany) solution were added into each well. The supernatant was discarded after 1 h incubation at 37 °C and the precipitated formazan was dissolved in 200 µl DMSO/well. Absorption was measured at 570 nm with background subtraction at 690 nm using a photometric microplate reader (Thermo Scientific Multiskan EX, Thermo Fisher Scientific). Data was further subtracted by the DMSO control and normalized on DPBS. The half-maximal effective concentration (EC50) was determined by plotting dose response curves and nonlinear regression with GraphPad Prism (GraphPad Software). […]

As to `O=CN(CCCCCCCCCCCC(=O)Nc1ccc(C(=O)NCCCCCCC(=O)NO)cc1)C(C(=O)NCc1ccccc1)c1ccc(Cl)c(Cl)c1` (centres unmarked) [Compound 1j-nc], the values for the EC50 in the assay on MM.1S cells and in the assay on U-87MG cells were 8.6 ± 1.5 µM and 43 ± 18 µM, respectively.
`O=C(CCCCCCNC(=O)c1ccc(NC(=O)CCCCCCCCCCCN(C(=O)CCl)C(C(=O)NCc2ccccc2)c2ccc(Cl)c(Cl)c2)cc1)NO` (centres unmarked) [Compound 1j]: in the assay on MM.1S cells, the concentration giving a half-maximal response (EC50) turned out to be 2.8 ± 0.1 µM and the “antiproliferative activity reduced compared to vorinostat by a factor” value is listed as 3 – 6. For the same compound, in the assay on U-87MG cells, the concentration for a half-maximal effect (EC50) came to 30 ± 5 µM.
Turning to `O=C(CCCCCCNC(=O)c1ccc(N(C(=O)CCl)C(C(=O)NCc2ccccc2)c2ccc(Cl)c(Cl)c2)cc1)NO` (centres unmarked) [Compound 2], in the assay on MM.1S cells, the concentration giving a half-maximal response (EC50) came out at 1.5 ± 0.1 µM and the “antiproliferative activity reduced compared to vorinostat by a factor” value was 3 – 6. Moreover, the concentration for a half-maximal effect (EC50) with U-87MG cells came to 12 ± 3 µM.

Source of the values: paper PMC12091851, “Replacing a Cereblon Ligand by a DDB1 and CUL4 Associated Factor 11 (DCAF11) Recruiter Converts a Selective Histone Deacetylase 6 PROTAC into a Pan‐Degrader” (Chemmedchem, 2025).
